Publication PMC10967856, “Mechanistic Insights Revealed by YbtPQ in the Occluded State” (Biomolecules, 2024)

Key:
YbtPQ [1] = biological target: T1, YbtPQ (Escherichia coli, UniProt Q1RAG2+Q1RAG3); settings: trapping at 37 °C for 15 min, vanadate 0-20 mM tested (20 mM with 18 mM ATP and 54 mM MgCl2 for the cryo-EM sample); YbtPQ-nanodisc; traps as ADP-Vi
T1 construct: gene ybtP

YbtPQ [2] = biological target: T1, YbtPQ; settings: YbtPQ-nanodisc; basal ATPase activity, no Km given

SMILES	% drop in ATPase activity after vanadate trapping (YbtPQ [1])	ATPase activity, malachite green phosphate release (YbtPQ [2])
[O]=[V]([OH])([OH])[OH] [vanadate]	~ 90%	–
Nc1ncnc2c1ncn2[C@@H]1O[C@H](COP(=O)(O)OP(=O)(O)OP(=O)(O)O)[C@@H](O)[C@H]1O [ATP]	–	malachite green reacting with the released phosphate group
